According to patent US9447116B2, “Inhibitors of HIV replication” (priority 2010, dated 2016):
Like-named read-outs stand apart in the source and are kept apart here.

Experiments:
[1] = test system: HIV-1 virus (NL4.3 strain); assay: MT-2 based antiviral assay (S8737E); assay type: cell-based
Text: MT-2 Based Antiviral Assay (S8737E)
This assay is designed to determine the effects of small molecules on the replication of HIV-1 in the lymphobastoid cell line, MT2, and is able to detect the antiviral effect of compounds acting at any stage of the HIV-1 replication cycle. The assay, along with its associated cytotoxicity assay, was described in detail in 2005 in a paper by Cao et al (Antimicrobial Agents and Chemotherapy 2005; 49(9), p 3833-3841).
MT2 cells are infected with the HIV-1 virus (NL4.3 strain; Adachi et al., Journal of Virology 1986) and transferred to assay plates containing serial dilutions of compounds to be tested. The assay plates are incubated for 3 days (MT2) to allow for several rounds of viral replication/infection to take place. At the end of this time, supernatant is transferred into new plates containing JC53BL cells.
JC53BL cells express CXCR4, CCR5 and CD4 receptors, and HIV-1-LTR-β-Gal. Under normal culture conditions undetectable levels of β-Galactosidase are expressed, but in the presence of HIV-1, the viral Tat protein is able to activate the HIV-1-LTR in the JC53BL cells resulting in the increased expression of the β-Gal enzyme. The expression can be measured using the ‘FluorAce β-Galactosidase reporter’ assay. The levels of β-Gal are directly proportional to the levels of Tat (up to a threshold) allowing virus quantification. Compounds that inhibit virus replication will give rise to a reduced signal and a dose-response curve for each compound can be generated. This is then used to determine the IC50 for each compound, a measure of the compound's potency.

[2] = molecular target: T1, LEDGF-Integrase interaction (Human immunodeficiency virus type 1 group M subtype B, UniProt P12497); assay: HTRF Interaction assay (S9118); set-up: species or system HIV; details: His6-tagged integrase and MBP-LEDGF integrase binding domain
T1 construct: His6-tagged integrase (78 nM final concentration); purchased Prof; Zeger Debyser, Katholieke Universiteit Leuven (supplied by an academic laboratory, not a commercial vendor)
Text: • Adachi, A., Gendelman, H., Koenig, S., Folks, T., Wiley, R., Rabson, A. and Martin, M (1986) Production of acquired immunodeficency syndrome-associated retrovirus in human and nonhuman cells transfected with an infectious molecular clone, J. Virol., 59, 284-291. • Cao J, Isaacson J, Patick A K, Blair W S. (2005) High-throughput human immunodeficiency virus type 1 (HIV-1) full replication assay that includes HIV-1 Vif as an antiviral target Antimicrobial Agents and Chemotherapy; 49(9), p 3833-3841. Assay to Measure the LEDGF-Integrase Integration Inhibitory Activity of Compounds of the Invention HTRF Interaction Assay (S9118)
An Homogeneous Time Resolved Fluorescence (HTRF) assay is performed in a manner similar to previous reports on HTRF protein assays as reviewed by Mathis (Clin. Chem., 2005). The assay procedure is performed as follows: reactions are performed in 20 μl final volume in 384-well black low volume microtiter plates (Greiner). The final reaction buffer contains 29 mM phosphase buffer (pH 7), 10 mM HEPES buffet (pH 7.4), 68.5 mM NaCl, 1.4 mM KCl, 400 mM KF 0.05% (w/v) pluronic acid (P104, Sigma Aldrich) and 1% (v/v) DMSO. His6-tagged integrase (78 nM final concentration) is incubated with […] fused to the Δ325 carboxy terminal integrase binding domain of LEDGF in the presence of compound for 2 hours at room temperature. Both these protein regents are supplied by Prof. Zeger Debyser of Katholleke Universiteit Leuven, Leuven, Belgium. The compounds are added at varying concentrations spanning a wide range from 0.1 up to 100 μM. Afterwards 8.3 nM of europium cryptate conjugated anti-MBP monoclonal antibody and 17 nM anti-His antibody conjugated with the acceptor fluorophore d2. Following a 2 hour room temperature incubation the plates are read on an EnVision™ microplate reader (Perkin Elmer) using an excitation wavelength of 320 nm. The ratio of fluorescence emitted at […] is used to assess the degree to which the protein-protein interaction had been inhibited.

[3] = Human immunodeficiency virus 1, 72 h, read-out: Antiviral Activity (S8737E, μM), HIV-1 NL4.3 replication in MT2 cells, 3 days, β-Gal readout in JC53BL cells

SMILES	IC50 [1, 3]	IC50 [2]	IC50 ([2]; table values)	IC50 ([1]; read-out: Antiviral Activity (S8737E), HIV-1 NL4.3 replication in MT2 cells, 3 days, β-Gal readout in JC53BL cells)
Cc1ccc(-c2c([C@@H](OC(C)(C)C)C(=O)O)c(C)nc3sc4c(c23)CCCC4)c(O)c1 (single isomer, unassigned) [48, first eluting enantiomer]	0.089 µM	4.12 µM	–	–
Cc1ccc(-c2c(C(OC(C)(C)C)C(=O)O)c(C)nc3sc4c(c23)CCCC4)c(O)c1 (single isomer, unassigned) [48, second eluting enantiomer]	0.013 µM	0.576 µM	–	–
Cc1nc2sc3c(c2c(-c2ccc(Cl)cc2O)c1[C@H](OC(C)(C)C)C(=O)O)CCCC3 (single isomer, unassigned) [Atropisomer 46A]	0.014 µM	0.558 µM	–	–
Cc1nc2sc3c(c2c(-c2cncnc2)c1C(OC(C)(C)C)C(=O)O)CCCC3 (stereo not drawn) [Example 1, Tert-butoxy(2-methyl-4-pyrimidin-5-yl-5,6,7,8-tetrahydro[1]benzothieno[2,3-b]pyridin-3-yl)acetic acid]	> 20 µM	–	–	–
Cc1nc2sc3c(c2c(-c2ccc4scnc4c2)c1C(OC(C)(C)C)C(=O)O)CCCC3 (stereo not drawn) [Example 4]	0.282 µM	–	3.48 µM	–
CCc1ccc(-c2c(C(OC(C)(C)C)C(=O)O)c(C)nc3sc4c(c23)CCCC4)c(O)c1 (stereo not drawn) [Example 5]	0.155 µM	–	2.7 µM	–
Cc1nc2sc3c(c2c(-c2ccc4cn[nH]c4c2)c1C(OC(C)(C)C)C(=O)O)CCCC3 (stereo not drawn) [Example 6]	0.305 µM	–	2.63 µM	–
COc1ccc(-c2c(C(OC(C)(C)C)C(=O)O)c(C)nc3sc4c(c23)CCCC4)cn1 (stereo not drawn) [Example 7]	0.436 µM	–	9.25 µM	–
CCn1cc(-c2c(C(OC(C)(C)C)C(=O)O)c(C)nc3sc4c(c23)CCCC4)cn1 (stereo not drawn) [Example 8]	0.624 µM	–	23.8 µM	–
Cc1nc2sc3c(c2c(-c2ccc(C(F)(F)F)nc2)c1C(OC(C)(C)C)C(=O)O)CCCC3 (stereo not drawn) [Example 9]	0.683 µM	–	11.7 µM	–
Cc1nc2sc3c(c2c(-c2ccc4cnn(C)c4c2)c1C(OC(C)(C)C)C(=O)O)CCCC3 (stereo not drawn) [Example 10]	0.795 µM	–	7.87 µM	–
Cc1nc2sc3c(c2c(-c2ccc4cnn(C)c4c2)c1C(OC(C)(C)C)C(=O)O)CCCC3 (stereo not drawn) [Example 11]	–	–	12.2 µM	0.814 µM
Cc1nc2sc3c(c2c(-c2ccc4c(cnn4C)c2)c1C(OC(C)(C)C)C(=O)O)CCCC3 (stereo not drawn) [Example 12]	0.941 µM	–	5.13 µM	–
Cc1nc2sc3c(c2c(-c2ccccc2CO)c1C(OC(C)(C)C)C(=O)O)CCCC3 (stereo not drawn) [Example 13]	0.957 µM	–	56.3 µM	–
COc1cc(-c2c(C(OC(C)(C)C)C(=O)O)c(C)nc3sc4c(c23)CCCC4)ccn1 (stereo not drawn) [Example 14]	1.24 µM	–	28.4 µM	–
Cc1nc2sc3c(c2c(-c2ccc(C#N)cc2)c1C(OC(C)(C)C)C(=O)O)CCCC3 (stereo not drawn) [Example 15]	1.28 µM	–	14.8 µM	–
Cc1nc2sc3c(c2c(-c2ccccc2O)c1C(OC(C)(C)C)C(=O)O)CCCC3 (stereo not drawn) [Example 16]	1.73 µM	–	57.4 µM	–
Cc1nc2sc3c(c2c(-c2ccc4nccn4c2)c1C(OC(C)(C)C)C(=O)O)CCCC3 (stereo not drawn) [Example 17]	1.78 µM	–	> 100 µM	–
Cc1nc2sc3c(c2c(-c2cnc4ccoc4c2)c1C(OC(C)(C)C)C(=O)O)CCCC3 (stereo not drawn) [Example 18]	1.84 µM	–	30.3 µM	–
Cc1nc2sc3c(c2c(-c2cccc(-c4nccn4C)c2)c1C(OC(C)(C)C)C(=O)O)CCCC3 (stereo not drawn) [Example 19]	1.9 µM	–	46.5 µM	–
Cc1nc2cc(-c3c(C(OC(C)(C)C)C(=O)O)c(C)nc4sc5c(c34)CCCC5)ccc2s1 (stereo not drawn) [Example 20]	2.01 µM	–	11.8 µM	–
CCOC(C(=O)O)c1c(C)nc2sc3c(c2c1-c1ccc2nsnc2c1)CCCC3 (stereo not drawn) [Example 21]	2.17 µM	–	64.8 µM	–

SMILES	IC50 [1, 3]	IC50 [2]	IC50 ([2]; table values)	IC50 ([1]; read-out: Antiviral Activity (S8737E), HIV-1 NL4.3 replication in MT2 cells, 3 days, β-Gal readout in JC53BL cells)
Cc1nc2ccc(-c3c(C(OC(C)(C)C)C(=O)O)c(C)nc4sc5c(c34)CCCC5)cc2s1 (stereo not drawn) [Example 22]	2.73 µM	–	12.8 µM	–
CCOC(C(=O)O)c1c(C)nc2sc3c(c2c1-c1ccc2cn[nH]c2c1)CCCC3 (stereo not drawn) [Example 23]	2.73 µM	–	33.1 µM	–
Cc1nc2sc3c(c2c(-c2cccc4c2cnn4C)c1C(OC(C)(C)C)C(=O)O)CCCC3 (stereo not drawn) [Example 24]	2.81 µM	–	7.59 µM	–
CCOC(C(=O)O)c1c(C)nc2sc3c(c2c1-c1ccccc1O)CCCC3 (stereo not drawn) [Example 25]	4.07 µM	–	> 100 µM	–
Cc1nc2sc3c(c2c(-c2cccc(C#N)c2)c1C(OC(C)(C)C)C(=O)O)CCCC3 (stereo not drawn) [Example 26]	4.51 µM	–	> 100 µM	–
Cc1nc2sc3c(c2c(-c2cccc(CO)c2)c1C(OC(C)(C)C)C(=O)O)CCCC3 (stereo not drawn) [Example 27]	4.64 µM	–	57.5 µM	–
Cc1cc(C)n(-c2cccc(-c3c(C(OC(C)(C)C)C(=O)O)c(C)nc4sc5c(c34)CCCC5)c2)n1 (stereo not drawn) [Example 28]	5.61 µM	–	29.6 µM	–
Cc1nc2sc3c(c2c(-c2ccc(N(C)C)nc2)c1C(OC(C)(C)C)C(=O)O)CCCC3 (stereo not drawn) [Example 29]	5.73 µM	–	64.6 µM	–
Cc1nc2sc3c(c2c(-c2cnc4cc[nH]c4c2)c1C(OC(C)(C)C)C(=O)O)CCCC3 (stereo not drawn) [Example 30]	6.63 µM	–	15.5 µM	–
CCOC(C(=O)O)c1c(C)nc2sc3c(c2c1-c1ccc2scnc2c1)CCCC3 (stereo not drawn) [Example 31]	6.66 µM	–	> 100 µM	–
Cc1nc2sc3c(c2c(-c2ccc4[nH]ncc4c2)c1C(OC(C)(C)C)C(=O)O)CCCC3 (stereo not drawn) [Example 32]	7.65 µM	–	> 100 µM	–
CCOC(C(=O)O)c1c(C)nc2sc3c(c2c1-c1ccc(C(F)(F)F)nc1)CCCC3 (stereo not drawn) [Example 33]	8.19 µM	–	> 100 µM	–
CCOC(C(=O)O)c1c(C)nc2sc3c(c2c1-c1ccccc1CO)CCCC3 (stereo not drawn) [Example 34]	8.97 µM	–	> 100 µM	–
CCOC(C(=O)O)c1c(C)nc2sc3c(c2c1-c1ccc2cnn(C)c2c1)CCCC3 (stereo not drawn) [Example 35]	10.7 µM	–	> 100 µM	–
Cc1nc2sc3c(c2c(-c2c[nH]c4nccc-4c2)c1C(OC(C)(C)C)C(=O)O)CCCC3 (stereo not drawn) [Example 36]	12 µM	–	> 100 µM	–
Cc1cc(-c2c(C(OC(C)(C)C)C(=O)O)c(C)nc3sc4c(c23)CCCC4)ccn1 (stereo not drawn) [Example 37]	13.9 µM	–	> 100 µM	–
Cc1nc2sc3c(c2c(-c2cccc(-n4cccn4)c2)c1C(OC(C)(C)C)C(=O)O)CCCC3 (stereo not drawn) [Example 38]	15.1 µM	–	97.5 µM	–
COc1ncc(-c2c(C(OC(C)(C)C)C(=O)O)c(C)nc3sc4c(c23)CCCC4)cn1 (stereo not drawn) [Example 39]	15.5 µM	–	> 100 µM	–
CCOC(C(=O)O)c1c(C)nc2sc3c(c2c1-c1cnn(CC)c1)CCCC3 (stereo not drawn) [Example 41]	17.7 µM	–	> 100 µM	–
CCOC(C(=O)O)c1c(C)nc2sc3c(c2c1-c1ccc(OC)nc1)CCCC3 (stereo not drawn) [Example 42]	18.1 µM	–	> 100 µM	–
CCOC(C(=O)O)c1c(C)nc2sc3c(c2c1-c1ccc2c(cnn2C)c1)CCCC3 (stereo not drawn) [Example 43]	18.9 µM	–	> 100 µM	–
Cc1nc2sc3c(c2c(-c2ccc(Cl)cc2)c1[C@H](OC(C)(C)C)C(=O)O)CCCC3 [Example 44, (2S)-tert-butoxy[4-(4-chlorophenyl)-2-methyl-5,6,7,8-tetrahydro[1]benzothieno[2,3-b]pyridin-3-yl]acetic acid]	0.036 µM	0.576 µM	–	–
